Results reported in patent publication US6723754B2, “Use of COMT inhibitors as analgesics” (Orion Corporation, priority 2000, dated 2004).
Marks after values point to notes of the source that are not given here.

Experiments:
[1] = system: inflamed paw in rats; experiment: Modified Randall-Selitto test (yeast-inflamed hind paw pain threshold); format: in vivo; settings: rat, one hour before measurement, % of control value
Description: (§1) There are several methods for testing analgesic drugs experimentally. […] The inflammation is induced in the rat hind paw by yeast suspension and the pain threshold of the paw is measured. […] In these tests, both the NSAIDs and opioid analgesics are known to be effective. The hot plate test in mice is a test in which only opioid analgesics are effective.
The effect on inflammatory pain was measured using a modified Randall-Selitto test. 0.1 ml of 20% Brewer's yeast suspension was injected subplantary to the right hind paw of rats under ether anaesthesia to elicit inflammation in the paw. After 3 hours the degree of hyperalgesia was determined with an analgesy-meter by applying a force of increasing magnitude to the inflamed paw with a cone-shaped teflon pusher. The force at which the animals begins to struggle was assumed to represent the pain threshold. The drugs were administered orally 5 ml/kg one hour before the measurement. The increase in pain threshold was calculated as a percentage of the control value.

[2] = system: acetic acid induced writhing in mice; experiment: Acetic acid-induced writhing in mice; format: in vivo; settings: mouse
Description: as §1
Acetic acid induced writhing test is a widely used screening method for analgesic agents. […] Writing movements were elicited in mice by an i.p. injection of 1% acetic acid in the volume of 0.1 ml/10 g. The mice were placed in individual glass containers for observation. The number of writhes was counted during a period of 20 minutes and recorded every 5 minutes. The test compounds were given 5-60 minutes before the acetic acid.

[3] = system: formation of prostaglandins; settings: Aho and Linden, Scand.J.Gastroenterol. 1992; cited from earlier work

Compound	Increase in pain threshold (%) ([1]; 1 mg/kg p.o.)	Increase in pain threshold (%) ([1]; 3 mg/kg p.o.)	Increase in pain threshold (%) ([1]; 30 mg/kg p.o.)	Inhibition of writhing (%) ([2]; 50 mg/kg p.o.)	Inhibition of writhing (%) ([2]; 100 mg/kg p.o.)	Increase in pain threshold (%) ([1]; 10 mg/kg p.o.)	Inhibition of writhing (%) ([2]; 3 mg/kg i.v.)	Inhibition of writhing (%) ([2]; 10 mg/kg i.v.)	Inhibition of writhing (%) ([2]; 1 mg/kg i.p.)	Inhibition of writhing (%) ([2]; 2 mg/kg p.o.)	Inhibition of writhing (%) ([2]; 6 mg/kg p.o.)	Increase in pain threshold (%) ([1]; 0.5 mg/kg p.o.)	Effect on formation of prostaglandins [3]	Inhibition of writhing (%) ([2]; 30 mg/kg i.p.)	Inhibition of writhing (%) ([2]; 100 mg/kg i.p.)
O=[N+]([O-])c1cc(O)c(O)c([N+](=O)[O-])c1 [3,5-dinitrocatechol]	49* %	49* %	65* %	36** %	22** %										
CC(=O)c1cc(O)c(O)c([N+](=O)[O-])c1 [3′,4′-dihydroxy-5′-nitroacetophenone]		45%	62* %	28** %	43** %	68** %									
CCN(CC)C(=O)/C(C#N)=C/c1cc(O)c(O)c([N+](=O)[O-])c1 [Entacapone, (E)-2-cyano-3-(3,4-dihydroxy-5-nitrophenyl)-N,N-diethyl-2-propenamide]			64%		24%	62%	14	38* %							
COc1ccc2c(c1)c(CC(=O)O)c(C)n2C(=O)c1ccc(Cl)cc1 [Indomethacin, indomethacin]	54* %								38* %	18* %	42** %				
CC(=O)C(=Cc1cc(O)c(O)c([N+](=O)[O-])c1)C(C)=O [Nitecapone, 3-(3,4-dihydroxy-5-nitrophenyl)methylene-2,4-pentanedione]	58* %	46* %		15* %	21** %	45* %						13	stimulate the formation of prostaglandins	37* %	76* %
